Measurements published in BigSolDB 2.1.

COc1ccc2[nH]cc(CCNC(C)=O)c2c1
solubility (mole fraction)
Conditions	278.15 K	283.15 K	288.15 K	293.15 K	298.15 K	303.15 K	308.15 K	313.15 K	318.15 K	323.15 K
in ethanol	0.00853	0.0113	0.0151	0.02	0.0254	0.032	0.0406	0.0527	0.0665	0.0844
in isobutanol	0.00406	0.00538	0.0073	0.00972	0.0127	0.0167	0.0212	0.0276	0.0352	0.0441
in methanol	0.0116	0.0158	0.0211	0.0282	0.0357	0.0462	0.0594	0.0757	0.0963	0.122
in methyl acetate	0.00303	0.00406	0.00531	0.00688	0.0085	0.0112	0.0144	0.0191	0.0244	0.0306
in n-butanol	0.00518	0.00676	0.009	0.0118	0.0152	0.0199	0.0257	0.0328	0.0425	0.0536
in n-hexanol	0.0038	0.00497	0.00679	0.00872	0.0114	0.0146	0.019	0.0244	0.0308	0.0393
in n-pentanol	0.00515	0.00671	0.00889	0.0114	0.0145	0.0184	0.0233	0.0291	0.0365	0.0444
in n-propanol	0.00602	0.00792	0.0108	0.0147	0.0197	0.0254	0.0329	0.0418	0.0538	0.0701
